Data on ten compounds can be found in US7282507B2, “Indole derivatives as selective androgen receptor modulators (SARMS)” (Janssen Pharmaceutica N.V., priority 2004, dated 2007).

Experiment [1] addresses T1, androgen receptor (AdEasy+rAR, L929 cells) (Rattus norvegicus, UniProt P15207).
T1 construct: expressed in transfected cells; host or cells: L929 cells transduced with adenovirus AdEasy+rAR
T1 sequence (P15207 1-902): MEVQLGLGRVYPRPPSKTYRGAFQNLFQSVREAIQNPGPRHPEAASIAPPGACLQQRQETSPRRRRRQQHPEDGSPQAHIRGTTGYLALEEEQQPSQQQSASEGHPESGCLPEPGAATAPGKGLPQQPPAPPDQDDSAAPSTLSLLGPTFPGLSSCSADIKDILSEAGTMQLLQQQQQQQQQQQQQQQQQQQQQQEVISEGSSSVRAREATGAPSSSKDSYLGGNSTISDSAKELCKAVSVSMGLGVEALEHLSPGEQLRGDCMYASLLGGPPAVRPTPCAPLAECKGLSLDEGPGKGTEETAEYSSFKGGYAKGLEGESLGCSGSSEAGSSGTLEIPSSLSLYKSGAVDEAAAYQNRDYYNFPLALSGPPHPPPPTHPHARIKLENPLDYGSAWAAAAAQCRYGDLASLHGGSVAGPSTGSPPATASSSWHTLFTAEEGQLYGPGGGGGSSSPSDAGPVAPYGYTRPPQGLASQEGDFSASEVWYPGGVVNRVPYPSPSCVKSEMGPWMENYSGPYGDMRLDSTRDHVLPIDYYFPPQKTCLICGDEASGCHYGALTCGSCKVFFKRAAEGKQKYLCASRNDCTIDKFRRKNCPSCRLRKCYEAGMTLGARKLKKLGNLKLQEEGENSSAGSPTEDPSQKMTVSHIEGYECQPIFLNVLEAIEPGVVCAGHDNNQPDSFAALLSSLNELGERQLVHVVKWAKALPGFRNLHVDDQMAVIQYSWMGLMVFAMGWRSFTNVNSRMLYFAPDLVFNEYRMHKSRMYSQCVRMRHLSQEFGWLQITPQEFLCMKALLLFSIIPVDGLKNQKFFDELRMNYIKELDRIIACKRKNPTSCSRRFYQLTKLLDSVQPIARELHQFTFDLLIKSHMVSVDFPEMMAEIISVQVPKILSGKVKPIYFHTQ
Briefly: L929 Androgen Receptor Functional Assay, Adenovirus Transduction. The experiment is classed as cell-based. The note with it: for inhibition at 3 µM: L929, antagonist testing with R1881, 3000 nM; for IC50: antagonist testing with R1881. In outline: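 L929 cells in phenol red-free, charcoal-stripped serum medium transduced with AdEasy+rAR (moi 1:500) and exposed 48 h at 37 °C to compound alone (agonist mode) or with R1881 (antagonist mode; 2.5 nM as the 2.5× dilution).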

Experiment [2] relates to testosterone-enhanced ventral prostate and seminal vesicle weights. The experiment can be described thus: Ventral Prostate and Seminal Vesicle Weight in vivo Assay. Also: key: 'active' if the non weight adjusted prostate weight was ≦40 mg or the % Inhibition prostate weight, body weight adjusted was ≧40% @ 2 mg/day dosage; ID50's, if determined, of ≦15 mg/day also indicated an 'active' compound; listed herein as 'inactive' as they did not meet the specified criteria defined above. Also on record: species or system rat. The note with it: immature castrated male Sprague Dawley rats, once daily for five days, usually orally 40 mg/kg, with testosterone propionate 2 mg/kg s.c. In outline: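 Immature castrated male Sprague Dawley rats (~50 g) were dosed once daily for five days with compound, usually orally at 40 mg/kg in cyclodextrin or methylcellulose vehicle. Testosterone propionate was co-dosed subcutaneously at 2 mg/kg. On day six, ventral prostate and seminal vesicle wet weights were measured; activity was judged on prostate weight or body-weight-adjusted % inhibition.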

Experiment [3] deals with T2, androgen receptor (AdEasy+rAR, COS-7 cells) (Rattus norvegicus, UniProt P15207).
T2 construct: expressed in transfected cells; host or cells: COS-7 cells transduced with adenovirus AdEasy+rAR
T2 sequence (P15207 1-902): T1 sequence (P15207 1-902)
The experiment can be described thus: COS-7 Whole-Cell Androgen Receptor Binding Assay, Adenovirus Transduction. The note with it: for inhibition at 3 µM / % Inhibition, COS Binding: concentration of 3000 nM; for % Inhibition, COS Binding: 3 µM. The protocol: COS-7 cells were plated in 96-well plates at 20,000 cells per well, in a solution of DMEM/F12 (GIBCO) containing 10% (v/v) charcoal-treated fetal bovine serum (Hyclone) and lacking phenol red. The cells were then incubated overnight at 37° C. in 5% (v/v) humidified CO2.
Test compound solutions were prepared by diluting the test compound in 100% (v/v) DMSO, if necessary.
Next, 1 mL of DMEM/F12 lacking phenol red was pipetted into each of the wells of a 2-mL 96-well assay block. […] The wells were carefully mixed by pipette.
In a 15 mL or 50 mL sterile centrifuge tube, a dilution in DMEM/F12 of the adenovirus AdEasy+rAR at a moi of 1:50 per well was prepared.
The medium was removed from the 96-well plates by inversion and the plates dried very briefly, inverted, on a sterile towel. As soon as possible after medium removal, 40 μL of the diluted test compound was added to each well, in duplicate. […] The plates were then incubated for 48 hours at 37° C. in 5% (v/v) humidified CO2.
The medium was removed from the above incubated plates by inversion and dried. Each well was then washed with 0.35 mL of 1× PBS. The PBS was then removed from the plates by inversion and the plates dried.
To each well was then added 50 μL of 0.5% (v/v) Triton X-100 (Sigma) in 1× PBS and the plates placed on a rotary shaker for 5 min. The contents of each well were then transferred to an OptiPlate-96 (Packard) scintillation plate. To each well was then added 0.2 mL of Microscint-20 (Packard) and the wells counted on a TopCount (Packard).
Percent inhibition was determined by testing dilutions of the test compound (usually duplicates of 10 μM) in the binding assay. Counts per well were measured and percents of inhibition determined. […] Counts per well were measured and IC50s determined by linear regression.

Where [4] appears, read: read-out: IC50 (nM), COS Binding.

Like-named read-outs stand apart in the source and are kept apart here.

With `CCC(O)(CS(=O)(=O)CC(F)(F)F)c1[nH]c2cc(C(F)(F)F)c([N+](=O)[O-])cc2c1Cl` (centres unmarked) [Compound 199], the figures for the inhibition at 3 µM in experiment [1] and in experiment [3] were 59% and 82%, respectively. Besides, the “% Activity, L929 androgen receptor functional assay” value (shortened to “% Activity”) in experiment [1] (agonist testing, 3000 nM) was 2%. Moreover, the “active / inactive: inhibition of testosterone-enhanced prostate weight” value (“active / inactive: inhibition” below) in experiment [2] is “inactive”. The IC50 in experiment [3] (setting [4]) stood at 310 nM.
Turning to `CCSCC(C)(O)c1cc2cc(Br)c(C(F)(F)F)cc2[nH]1` (centres unmarked) [Compound 220], the inhibition at 3 µM in experiment [1] came out at 103%. Further, the “% Activity” value in experiment [1] (agonist testing, 3000 nM) is recorded as −3%. In addition, the “active / inactive: inhibition” value in experiment [2] was “inactive”. In addition, in experiment [3] (setting [4]), the IC50 was found to be 34 nM.
With `CCSCC(C)(O)c1cc2cc(C#N)c(C(F)(F)F)cc2n1C` (centres unmarked) [Compound 236], the inhibition at 3 µM in experiment [1] was 103%; in experiment [3] it was 83%. Further, in experiment [1] (agonist testing, 3000 nM), the “% Activity” value came out at 2%. For the same compound, the 50% inhibitory concentration (IC50) in experiment [1] came out at 821 nM; in experiment [3] (setting [4]) it was 105 nM. The “active / inactive: inhibition” value in experiment [2] was “active”.
For the compound `CC(O)(CSCC(F)(F)F)c1[nH]c2cc(C(F)(F)F)c([N+](=O)[O-])cc2c1I` (centres unmarked) [Compound 213], the inhibition at 3 µM in experiment [1] came out at 92%; in experiment [3], 71%. Also, the EC50 in experiment [1] (agonist testing) is greater than 8000 nM. In addition, the “% Activity” value in experiment [1] (agonist testing, @ 8000 nM) was −1 @ 8000 nM %. The figures for the IC50 in experiment [1] and in experiment [3] (setting [4]) were 372 nM and greater than 600 nM, respectively. Besides, in experiment [2], the “active / inactive: inhibition” value is on record as “active”.
For the compound `CC(O)(CS(C)(=O)=O)c1cc2cc(Cl)c(C(F)(F)F)cc2n1S(C)(=O)=O` (centres unmarked) [Compound 137], the inhibition at 3 µM in experiment [1] came out at 77%; in experiment [3] it was 73%. Also, in experiment [1] (agonist testing, 3000 nM), the “% Activity” value was 0%. The “active / inactive: inhibition” value in experiment [2] is “inactive”. This compound gave an IC50 in experiment [3] (IC50 (nM), COS Binding) greater than 1500 nM.
Take `CCSCC(C)(O)c1[nH]c2cc(C(F)(F)F)c(C#N)cc2c1C` (single isomer, unassigned) [Compound 234, 2-(2-Ethylsulfanyl-1-hydroxy-1-methyl-ethyl)-3-methyl-6-trifluoromethyl-1H-indole-5-carbonitrile]: in experiment [1] (agonist testing, 3000 nM, 3 µM), the “% Activity” value was −1%. The IC50 in experiment [1] was found to be 215 nM; in experiment [3] (setting [4]) it was 539 nM. Also, the “% Inhibition, L929 androgen receptor functional assay” value in experiment [1] (antagonist testing with R1881, 3000 nM, 3 µM) turned out to be 99%. In addition, in experiment [2], the “active / inactive: inhibition” value was “inactive”. Moreover, the “% Inhibition, COS Binding” value in experiment [3] was 71%.
Turning to `CC(O)(CSCC(F)(F)F)c1cc2cc([N+](=O)[O-])c(C(F)(F)F)cc2[nH]1` (single isomer, unassigned) [Compound 202], the “% Activity” value in experiment [1] (agonist testing, 3000 nM, 3 µM) is on record as 1%. In experiment [2], the “active / inactive: inhibition” value is listed as “active”. Moreover, the “% Inhibition, COS Binding” value in experiment [3] stood at 50%.
Turning to `CCC(O)(CS(=O)(=O)CC(F)(F)F)c1cc2cc([N+](=O)[O-])c(C(F)(F)F)cc2[nH]1` (centres unmarked) [Compound 191], the results for the inhibition at 3 µM in experiment [1] and in experiment [3] were -6% and 65%, respectively. Moreover, in experiment [1] (agonist testing, 3000 nM), the “% Activity” value is 2%. Also, the “active / inactive: inhibition” value in experiment [2] is “active”. The IC50 in experiment [3] (setting [4]) turned out to be 840 nM.
In the case of `CCSCC(C)(O)c1[nH]c2cc(C(F)(F)F)c(C#N)cc2c1C` (centres unmarked) [Compound 219], the inhibition at 3 µM in experiment [1] amounted to 103%. Moreover, the “% Activity” value in experiment [1] (agonist testing, 3000 nM) was −3%. Further, the “active / inactive: inhibition” value in experiment [2] was “inactive”. The IC50 in experiment [3] (setting [4]) amounted to 6.2 nM.
As to `CCC(O)(CSCC(F)(F)F)c1cc2cc(F)c(C(F)(F)F)cc2[nH]1` (centres unmarked) [Compound 194], the inhibition at 3 µM came to 40% in experiment [1] and 80% in experiment [3]. In experiment [1] (agonist testing, 3000 nM), the “% Activity” value stood at 2%. Further, the “active / inactive: inhibition” value in experiment [2] was “inactive”. Moreover, the IC50 in experiment [3] (setting [4]) came out at 320 nM.
